Tested on: C8161 human cutaneous melanoma cells
Experiment: In vivo tumor formation, orthotopic mouse model, C8161 melanoma cells
Conditions: for tumorigenicity / tumor formation: 250,000 C8161 cells treated with Morpholino before subcutaneous injection, n=5, p<0.05
Procedure: A microenvironment of human embryonic stem cells (H9 CMTX) was prepared as described above. C8161 human cutaneous melanoma cells were exposed to the H9 CMTX or Matrigel for 3 to 4 days prior to transplantation in a mouse model. Nude immunocompromised mice received an injection of the C8161 cells subcutaneously into the midscapular region (to mimic spontaneous metastatic dissemination found in human cancers). The animals were injected using a 25 or 27-gauge needle with 2.5×10^5 tumor cells/mouse in 0.05 ml RPMI media.
As a corollary to these findings, an orthotopic mouse model was used to examine the effect of Nodal inhibition on melanoma tumor formation. For the experimental tumourigenesis model, 5 week old nude mice (Harlan, Madison, Wis.) were injected subcutaneously with 250,000 C8161 cells, treated with control or anti-Nodal Morpholinos, in 50 μL of complete RPMI. Tumor measurements were taken on days 3, 7, 14 and 17 post-injection, and mice were sacrificed on day 17. For the orthotopic mouse tumor formation studies, statistical significance was determined using the Kruskal-Wallis One Way Analysis of Variance on Ranks, followed by Dunn's method.
The derivation and phenotypic characteristics of the human melanoma cell lines have been previously described. Seftor, et. al., 2002, Clin. Experim. Metastas. 19:233-246; Seftor, et. al., 2005 Cancer Res. 65:10164-10169. The melanoma cell lines are maintained in RPMI 1640 medium (Invitrogen) supplemented with 10% fetal bovine serum (FBS, Gemini Bioproducts) and 0.1% gentamycin sulfate with the exception of C81-61 cells which are maintained in Ham's FIO medium supplemented with 15% FBS, 1X Mito+ (BD Bioscience) and gentamycin sulfate. Normal human melanocytes are purchased (Cascade Biologics) or isolated from neonatal foreskins. Seftor, et. al., 2005. A single cell suspension is prepared, added to plastic flasks for the adherence of melanocytes and the cells propagated in Medium 254 with Human Melanocyte Growth Supplement (Cascade Biologics) including, 100 units/ml penicillin, 100 μg/ml streptomycin, and 250 ng/mL amphotericin B. The human embryonic stem cell lines are cultured as previously described. Thomson, et. al., 1998, Science 282:1145-1147. Briefly, cells are grown in 6-well plates precoated with 0.1% porcine gelatin and containing 1.9×10^5 irradiated mouse embryonic fibroblasts (strain CF-1; ATCC) per well. The cells are maintained in medium containing DMEM/F12 (1:1), 20% knock-out serum replacement, non-essential minimal amino acids, L-glutamine (Invitrogen), […], and 4 ng/ml FGF-2 (R&D Systems), and are split with collagenase (1 mg/ml) before the colonies begin to overlap. The cultures are determined to be free of mycoplasma contamination using a PCR-based assay (Roche). […]

[1] = 250,000 C8161 cells treated with anti-Nodal Morpholino before injection

For “MO^Nodal: FITC-conjugated anti-sense Morpholino to Nodal, 5′-AAGCAGCACCTCCAGCCCTTATATC-3′ [SEQ ID NO: 20] (all phosphorodiamidate morpholino (PMO); FITC conjugated, position not given here)”, the “tumorigenicity / tumor formation” value (listed as MO Nodal) was “reduction in tumor formation”, the “tumorigenicity / tumor formation” value (listed as MONodal) was “significant reduction” and the “diminution of tumor incidence” value [1] was 30%. The tumor growth [1] was “decrease”.

— US8106004B2, “Methods of inhibiting tumor cell aggressiveness using the microenvironment of human embryonic stem cells” (Children's Memorial Hospital, priority 2006, dated 2012)
